From patent US20040266802A1, “Tricyclic analgesics” (priority 1999, published 2004) come the findings set out here.

Data set [1] relates to Chronic Hyperalgesia Induced by PGE2 in Rats. As to the kind of experiment: Analgesic activity on chronic hyperalgesia induced by PGE2 in rats (Randall and Selitto test). Format: in vivo. As to conditions: Rattus norvegicus, sc, 0.5 h; Sprague-Dawley rats, 10 mg/kg s.c., 30 min before measuring the pain threshold, compared with vehicle controls. The protocol:
Analgesic Activity on Chronic Hyperalgesia Induced by PGE2 in Rats
The test consists in determining the analgesic effect of the test compound in rats by the Randall and Selitto test, in which chronic hyperalgesia has been triggered by intraplantar injection of PGE2 over 4 days into a leg, according to a protocol adapted from Nakamura-Craig et al (Pain, 63: 33-37. 1995).
The study is carried out on batches of 120-140 g Sprague-Dawley rats to which 100 ng of PGE2 is administered in a volume of 100 μl by the intraplantar route, for 4 consecutive days twice a day; this causes chronic hyperalgesia in the leg from the 5th day, for at least one week. On the day of the test, in the morning, the threshold of reaction to pain is checked by the Randall and Selitto test, and animals whose threshold is ψ100 arbitrarily defined units are selected. In the afternoon, the measurement is repeated after prior administration by the s.c. route of a solution of the test compound; this administration is carried out 30 min before measuring the pain threshold. For each batch, the analgesic activity (%) is calculated from the means of the thresholds measured before and after treatment, as compared with that of the control animals, who received only the vehicle.

Data set [2] concerns Na+ channels. The data set can be described thus: 22Na+ influx into SK-N-SH neuroblastoma cells under veratridine stimulation. Format: cell-based.
Data set [3] addresses Na+ channel. As to conditions: rat cerebral cortex synaptosomes, 10 nM [3H]batrachotoxin, 90 min at 25° C.; read-out: [3H] BTX assay: Na+ channel binding Ki.
[4] abbreviates: human SK-N-SH cells, veratridine-induced influx, 10 min at 37° C.; read-out: 22Na influx IC50.

Each structure is given as a SMILES string. Counter-ions that a name gives are not always drawn. Like-named read-outs stand apart in the source and are kept apart here.

As a reminder, the melting point is the temperature, or range, at which the solid turns liquid. The term inhibition in vivo denotes the drop in the measured response relative to a control, in per cent. Low readings indicate a weak effect, high ones a strong effect. Usually IC50 stands for the concentration at which inhibition is half-maximal. A word on the Ki: it is the equilibrium dissociation constant of an inhibitor or competing ligand from its target.

The compound `O=C1c2ccccc2CCC12CCNCC2` (as salt: hydrochloride) yielded a melting point of 235 °C. The same measure, in the same setting: the same measure for `O=C1c2ccccc2CCC12CCN(CCc1ccccc1)CC2` (as salt: hydrochloride): more than 275 °C; for `O=C1c2ccccc2CCC12CCN(CC1CC1)CC2` (as salt: hydrochloride) [Example 2, 1′-cyclopropylmethyl-3,4-Dihydro-1-oxospiro[naphthalene-2(1H),4′-piperidine]]: 243 °C; for `O=C1c2ccccc2CCC12CCN(CC1CCC1)CC2` (as salt: hydrochloride) [Example 3, 1′-cyclobutylmethyl-3,4-Dihydro-1-oxospiro[naphthalene-2(1H),4′-piperidine]]: 235 °C.

In turn, `O=C1c2ccccc2CCC12CCN(CC1CCCCC1)CC2` (as salt: hydrochloride) [Example 4, 1′-cyclohexylmethyl-3,4-Dihydro-1-oxospiro[naphthalene-2(1H),4′-piperidine]] returned a melting point of 265 °C. On to `O=C1c2ccccc2CCC12CCN(CCC1CC1)CC2` (as salt: hydrochloride) [Example 6, 1′-cyclopropylethyl-3,4-Dihydro-1-oxospiro[naphthalene-2(1H),4′-piperidine]], for which the melting point worked out at 244 °C. Same read-out and setting: under `O=C1c2ccccc2CCC12CCN(C/C=C/c1ccccc1)CC2` (as salt: hydrochloride) [Example 7, 1′-cinnamyl-3,4-Dihydro-1-oxospiro[naphthalene-2(1H),4′-piperidine]] stands 228 °C; under `O=C1c2ccccc2CCC12CCN(CCC(c1ccccc1)c1ccccc1)CC2` (as salt: hydrochloride) [Example 8, 1′-(3,3-diphenylpropyl)-3,4-Dihydro-1-oxospiro[naphthalene-2(11H),4′-piperidine]], 257 °C; under `Cc1cc(C)c2c(c1)C(=O)C1(CC2)CCN(CC2CC2)CC1` (as salt: hydrochloride) [Example 9, 1′-(cyclopropylmethyl)-3,4-Dihydro-5,7-dimethyl-1-oxospiro[naphthalene-2(1H),4′-piperidine]], more than 260 °C. Still for that read-out and setting: under `COc1ccc2c(c1)CCC1(CCN(CC3CC3)CC1)C2=O` (as salt: hydrochloride) [Example 10, 1′-(cyclopropylmethyl)-3,4-Dihydro-6-methoxy-1-oxospiro[naphthalene-2(1H),4′-piperidine]] stands more than 255 °C; under `COc1cccc2c1CCC1(CCN(CC3CC3)CC1)C2=O` (as salt: hydrochloride) [Example 11, 1′-(cyclopropylmethyl)-3,4-Dihydro-5-methoxy-1-oxospiro[naphthalene-2(1H),4′-piperidine]], 244 °C. Turning to `O=C1c2ccccc2CCC12CCN(CC1CC1)CC2` [Example 2, 1′-cyclopropylmethyl-3,4-Dihydro-1-oxospiro[naphthalene-2(1H),4′-piperidine]], in data set [1], at 10 mg/kg the inhibition in vivo was 49%. For the same compound, the IC50 in data set [2] (setting [4]) was 10700 nM. For `O=C1c2ccccc2CCC12CCN(CCC1CC1)CC2` [Example 6, 1′-cyclopropylethyl-3,4-Dihydro-1-oxospiro[naphthalene-2(1H),4′-piperidine]] the same measures were 67% and 3400 nM. For `O=C1c2ccccc2CCC12CCN(C/C=C/c1ccccc1)CC2` [Example 7, 1′-cinnamyl-3,4-Dihydro-1-oxospiro[naphthalene-2(1H),4′-piperidine]], 10 mg/kg produced 57% inhibition in vivo in data set [1]. Further, in data set [2] (setting [4]), the concentration for half-maximal inhibition (IC50) amounted to 940 nM.

For `O=C1c2ccccc2CCC12CCN(CCC(c1ccccc1)c1ccccc1)CC2` [Example 8, 1′-(3,3-diphenylpropyl)-3,4-Dihydro-1-oxospiro[naphthalene-2(11H),4′-piperidine]], testing at 10 mg/kg in data set [1] gave an inhibition in vivo of 47%. Moreover, in data set [2] (setting [4]), the IC50 turned out to be 970 nM. On the same counts, the results for `COc1ccc2c(c1)CCC1(CCN(CC3CC3)CC1)C2=O` [Example 10, 1′-(cyclopropylmethyl)-3,4-Dihydro-6-methoxy-1-oxospiro[naphthalene-2(1H),4′-piperidine]] are 100% and 30000 nM. Take `O=C1c2ccccc2CCC12CCN(CCCc1ccccc1)CC2` [Example 33]: the inhibition in vivo at 10 mg/kg in data set [1] turned out to be 81%. Besides, in data set [3], the inhibition constant (Ki) turned out to be 291 nM. Also, the IC50 in data set [2] (read-out: 22Na influx IC50; human SK-N-SH cells, veratridine-induced influx, 10 min at 37° C.) worked out at 1200 nM. In the case of `COc1cccc2c1CCC1(CCN(CC3CCC3)CC1)C2=O` [Example 36], the inhibition in vivo at 10 mg/kg in data set [1] turned out to be 51%. The Ki in data set [3] was determined as 475 nM. For the same compound, the IC50 in data set [2] (setting [4]) worked out at 3400 nM. With `COc1ccc2c(c1)CCC1(CCN(CCC3CC3)CC1)C2=O` [Example 42], the inhibition in vivo at 10 mg/kg in data set [1] was 46%. The IC50 in data set [2] (setting [4]) amounted to 4300 nM.

`COc1ccc2c(c1)CCC1(CCN(CC3CCC3)CC1)C2=O` [Example 43] had an inhibition in vivo at 10 mg/kg in data set [1] of 39%. Besides, the IC50 in data set [2] (setting [4]) was found to be 6000 nM. Regarding `COc1ccc2c(c1)CCC1(CCN(CCCc3ccccc3)CC1)C2=O` [Example 47], the inhibition in vivo at 10 mg/kg in data set [1] was 66%. Moreover, the IC50 in data set [2] (setting [4]) was 600 nM.

In the case of `COc1ccc2c(c1)C(=O)C1(CC2)CCN(CCC2CC2)CC1` [Example 49], in data set [1], the inhibition in vivo at 10 mg/kg was 38%. Also, the Ki in data set [3] is 2180 nM. In data set [2] (setting [4]), the IC50 came out at 7600 nM. On to `COc1ccc2c(c1)CCC1(CCNCC1)C2=O` [Example 70, 3.4-Dihydro-6-methoxy-1-oxospiro[naphthalene-2(1H),4′-piperidine]], for which the inhibition in vivo at 10 mg/kg in data set [1] amounted to 46%.
